Test results taken from patent US20250017964A1, “ENGINEERING OR INDUCING PDGF AND/OR PDGFR SIGNALING TO ENHANCE NK CELL THERAPY” (City of Hope, priority 2021, published 2025).
*1 amine or outer side, *2 acyl side, *3 side chain or, on linkers, in order; H or OH if unused. Where a SMILES comes first, the peptide text is derived from it. Bridges are numbered along the chain shown (N, C = ends). Roman numbers before positions name the chains, in order. [ ]: non-standard residue; d: D form. Actinocin(9to1) = Cc1c2oc3c(C)ccc(C(=O)[*:1])c3nc-2c(C(=O)[*:2])c(N)c1=O; NMeV = CN[C@H](C(=O)O)C(C)C; Sar = CNCC(=O)O

Legend:
[1] = system: IL-15-induced PDGFRβ expression; assay: Inhibition assay: IL-15-induced PDGFRβ expression after inhibitor pretreatment, flow cytometry; assay type: cell-based, human; details: washed, IL-15 10 ng/ml 24 h; for inhibition of PDGFRβ expression: DMSO control
Method: FIGS. 2A-2I. […] (A-B) Primary NK cells were treated with IL-15 (10 ng/ml) for the indicated times. mRNA levels of PDGFRB at different time points (A) (n=3) or at 1 h (B) (n=10) were examined by qPCR. (C-D) Primary NK cells were pretreated with actinomycin D (ActD, 5., g/ml) (C) or cycloheximide (CHX, 20 μg/ml) (D) for 1 h, washed twice with RPMI-1640, and then treated with IL-15 (10 ng/ml) for 24 h. DMSO was used as a control. Expression levels of PDGFRβ were examined by flow cytometry (n=5). […] (E) Primary NK cells were pretreated with wortmannin (1 μM), afuresertib (10 μM), TPCA-1 (1 μM), rapamycin (10 μM), torin1 (10 μM), decernotinib (10 μM), C118-9 (10 μM), STAT5-IN-1 (10 μM), AZD6244 (10 μM), or CI-1040 (10 μM) for 1 h, washed twice with RPMI 1640, and then treated with IL-15 (10 ng/ml) for 24 h. DMSO was used as control. Data shown are % of inhibition (n=5). The mean value of the inhibitory rate is shown. […] (G-I) Binding of p65 to the PDGFRB promoter in IL-15-treated NK cells (G) or resting NK cells (H) as determined by ChIP-qPCR or PCR (I) (n=3). Data represent three independent experiments. Data shown are means SD. NS, not significant. *P<0.05, **P<0.01, ***P<0.001, and ****P<0.0001.
FIGS. 8A-8E. […] (A) Scheme for the three IL-15 signaling pathways and their inhibitors. (B) Representative dot plots of PDGFRβ expression in NK cells treated with specific inhibitors. (C) Binding sites for p65 in the promoter regions of PDGFRB and PDGF-D genes (predicted from http://jaspar.genereg.net). […] The cells were collected for an immunoblot using anti-phosphor (p)-p65, anti-p65, and anti-actin antibodies. The ratios of p-p65 to actin were calculated using ImageJ (n=3). Data shown represent the mean±SD. NS, not significant, **P<0.01, ****P<0.0001.
(§1) NK cells were cultured in RPMI 1640 with 10% heat-inactivated FBS (Gibco) at 37° C. in a 5% CO2 humidified incubator. For NK cell transduction, PDGFRB cDNA ORF clone (Cat: HG10514-G) was purchased from Sino Biological and cloned into pCDH-CMV-MCS-EF1-copGFP lentivirus vector (System Biosciences). To produce lentivirus, we transfected the lentiviral transfer vector DNA, together with psPAX2 packaging (Addgene) and pMD2.G envelope plasmid DNA (Addgene), into HEK293T cells; using a polyethyenimine (PEI) transfection protocol (Polysciences). Concentrated lentivirus was added to primary NK cells cultured in RPMI 1640 medium supplemented with 10% FCS and 10 jig/mL polybrene with 2,000×g centrifugation for 2 h. Cells were cultured for an additional 48 h. […] The cells were then collected for flow cytometry analysis. For the inhibition assay, NK cells were pretreated with the indicated inhibitors for 1 h, washed twice with RPMI 1640. and then treated with IL-15 for 24 h.
Cells were stained with the indicated cell-surface markers and/or fixed/permeabilized using a Fixation/Permeabilization Kit (eBioscience). For intracellular staining of IFN-γ and PDGF-D, 5 μg/ml Brefeldin A (BioLegend) was added for 4 h before cell harvest. Intracellular staining of Ki67 was performed by fixing and permeabilizing with the Foxp3/Transcription Factor Staining Kit (eBioscience). For CD107a staining, CD107a antibody was added into the culture for 4 h in the presence of Brefeldin A. Annexin V staining was performed using an FITC Annexin V Apoptosis Detection Kit according to the manufacturer's protocol (BD Biosciences). Flow cytometry analysis was performed on BD LSRFortessa X-20 (BD Biosciences). Data were analyzed using NovoExpress software (Agilent Technologies).

[2] = system: PDGFRβ expression in human NK cells; assay: Cytokine-induced PDGFRβ expression in purified human NK cells, flow cytometry; assay type: cell-based; details: cytokine 10 ng/ml, 24 h; IL-15 effect dose- and time-dependent
Description: Data shown are the percentages of PDGFRβ^+ NK cells among total NK cells (n=5). […] Bar=20 μm. […] Data represent three independent experiments. Data shown are means SD.
FIGS. 7A-7F. […] Data shown are representative histograms and mean fluorescence intensity (MFI) of PDGFRα. […] Expression levels of PDGFRβ were examined by flow cytometry (n=6). […] Data shown are the percentages of PDGFRβ^+ NK cells among total NK cells (n=5). […] Data shown are representative histograms with MFI of PDGFRβ expression. (F) Expression levels of PDGFRβ on NK cells from IL-15 transgenic (Tg) mice were determined by flow cytometry. Data shown are representative histograms. Data represent three independent experiments.
as §1
Cells were stained with the indicated cell-surface markers and/or fixed/permeabilized using a Fixation/Permeabilization Kit (eBioscience). For intracellular staining of IFN-γ and PDGF-D, 5 μg/ml Brefeldin A (BioLegend) was added for 4 h before cell harvest. Intracellular staining of Ki67 was performed by fixing and permeabilizing with the Foxp3/Transcription Factor Staining Kit (eBioscience).

[3] = inhibitor 10 μM pretreatment 1 h
[4] = inhibitor 1 μM pretreatment 1 h

**Q.** `Cn1cnc2c(F)c(Nc3ccc(Br)cc3Cl)c(C(=O)NOCCO)cc21` [AZD6244] was tested. Which “effect on IL-15-induced PDGFRβ expression” value [1, 3] did it give?
**A.** The value was “either little inhibition or even promoted”.

**Q.** `O=C(NOCC1CC1)c1ccc(F)c(F)c1Nc1ccc(I)cc1Cl` [CI-1040] was tested. Which “effect on IL-15-induced PDGFRβ expression” value [1, 3] did it give?
**A.** Its value is “either little inhibition or even promoted”.

**Q.** How did the “effect on IL-15-induced PDGFRβ expression” value [1, 3] turn out when `O=C(N/N=C/c1coc2ccccc2c1=O)c1cccnc1` [STAT5-IN-1] was run?
**A.** Its value is “either little inhibition or even promoted”.

**Q.** Which “effect on IL-15-stimulated PDGFRβ expression” value [1, 4] does the source give for `NC(=O)Nc1sc(-c2ccc(F)cc2)cc1C(N)=O` [TPCA-1] here?
**A.** Its value is “completely prevented”.

**Q.** With `Cc1c2oc3c(C)ccc(C(=O)N[C@@H]4C(=O)N[C@H](C(C)C)C(=O)N5CCC[C@H]5C(=O)N(C)CC(=O)N(C)[C@@H](C(C)C)C(=O)O[C@@H]4C)c3nc-2c(C(=O)N[C@@H]2C(=O)N[C@H](C(C)C)C(=O)N3CCC[C@H]3C(=O)N(C)CC(=O)N(C)[C@@H](C(C)C)C(=O)O[C@@H]2C)c(N)c1=O` [actinomycin D] (I: T[dV]P[Sar][NMeV] / II: T[dV]P[Sar][NMeV]; ester I:1-I:C, II:1-II:C; linker I:N-II:N via Actinocin(9to1)) as the molecule, how does the “effect on IL-15-induced PDGFRβ expression” value ([1]; ActD pretreatment 1 h) read?
**A.** Its value is “no longer induced PDGFRβ expression”.

**Q.** `Cn1ncc(Cl)c1-c1cc(C(=O)N[C@H](CN)Cc2cccc(F)c2)sc1Cl` [afuresertib] was tested. Which “inhibition of PDGFRβ expression” value [1, 3] did it give?
**A.** Its value is ~70%.

**Q.** `C[C@@H]1C[C@@H]([C@H](O)CC2CC(=O)NC(=O)C2)C(=O)[C@@H](C)C1` [cycloheximide] was tested. Which “effect on IL-15-induced PDGFRβ expression” value ([1]; CHX, 20 μg/ml pretreatment 1 h) did it give?
**A.** Its value is “completely inhibited”.

**Q.** With `CC[C@@](C)(Nc1ccnc(-c2c[nH]c3ncccc23)n1)C(=O)NCC(F)(F)F` [decemotinib, decernotinib] as the molecule, how does the “effect on IL-15-induced PDGFRβ expression” value [1, 3] read?
**A.** Its value is “approximately one third”.

**Q.** For `CCC(=O)N1CCN(c2ccc(-n3c(=O)ccc4cnc5ccc(-c6cnc7ccccc7c6)cc5c43)cc2C(F)(F)F)CC1` [torin1], which “effect on IL-15-induced PDGFRβ expression” value [1, 3] is on record?
**A.** The value was “dramatically and significantly blocked”.

**Q.** How did the “inhibition of PDGFRβ expression” value [1, 4] turn out when `COC[C@H]1OC(=O)c2coc3c2[C@@]1(C)C1=C(C3=O)[C@@H]2CCC(=O)[C@@]2(C)C[C@H]1OC(C)=O` [wortmannin] was run?
**A.** Its value is ~70%.

**Q.** How did the PDGFRβ expression [2] turn out when IL-18: recombinant human IL-18 (B001-5) was run?
**A.** The PDGFRβ expression was “ineffective”.
